# Assays:
# [1] = system: A549 (Human lung cancer cell line); assay: Effect of combination of sulfonamide compound and other antitumor agent (CellTiter-Glo, combination index): A549
# [2] = system: CFPAC-1 (Human pancreatic cancer cell line); assay: Effect of combination of sulfonamide compound and other antitumor agent (CellTiter-Glo, combination index): CFPAC-1;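 note: cells exposed to both agents together for 3 days, viability read by luminescence, normalized to vehicle-treated control wells, mean of triplicate wells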
# Protocol: (§1) Each cell line was seeded at 90 L/well to a 96-well culture plate (Thermo Fisher Scientific, Inc.) according to the above tables. The cell-seeded plate was cultured in an incubator set to 37° C. and 500 CO2. On the day following seeding, varying concentrations of the sulfonamide compound and the other antitumor agent were added in combination to the cells. […] The serial dilutions of each compound, or DW was added at 5μL/well to the plate such that each compound and DW, or the sulfonamide compound and the other antitumor agent were combined. […] The plate after the addition was cultured at 37° C. for 3 days under 5% CO2 conditions.
# (§2) Three days later, CellTiter-Glo(R) 2.0 Reagent (Promega Corporation) was added at 100 μL/well, and the amount of luminescence was measured using a plate reader EnSpire(R) Multimode Plate Reader (PerkinElmer Co., Ltd.).
# (§3) An average value from 3 wells was calculated as to each drug condition from the obtained data, and cell survival rate normalized against control wells supplemented with the vehicle (DW) was calculated. A Fa (fractional inhibition) value was calculated by subtracting the cell survival rate from 1.
# [3] = system: MV-4-11 (Human blood cancer cell line); assay: Effect of combination of sulfonamide compound and other antitumor agent (CellTiter-Glo, combination index): MV-4-11
# Protocol: as §1, §2, §3
# [4] = Example Compound 14 4420 nM + Gemcitabine 8.38 nM
# [5] = Example Compound 209A 635 nM + Gemcitabine 5.60 nM
# [6] = Example Compound 209A 952 nM + Gemcitabine 8.39 nM
# [7] = Example Compound 235A 780 nM + Gemcitabine 5.60 nM
# [8] = Example Compound 235A 1170 nM + Gemcitabine 8.40 nM
# [9] = Example Compound 5 1050 nM + Gemcitabine 5.28 nM
# [10] = Example Compound 14 2080 nM + Gemcitabine 5.28 nM
# [11] = Example Compound 14 3120 nM + Gemcitabine 7.92 nM
# [12] = Example Compound 209A 508 nM + Gemcitabine 5.28 nM
# [13] = Example Compound 235A 722 nM + Gemcitabine 5.28 nM
# [14] = Example Compound 14 1970 nM + Decitabine 1340 nM
# [15] = Example Compound 14 2950 nM + Decitabine 2000 nM
# [16] = Example Compound 14 4420 nM + Decitabine 3000 nM
# [17] = Example Compound 209A 635 nM + Decitabine 2000 nM
# [18] = Example Compound 235A 520 nM + Decitabine 1340 nM
# [19] = Example Compound 235A 780 nM + Decitabine 2020 nM
# [20] = Example Compound 235A 1170 nM + Decitabine 3020 nM
# [21] = Example Compound 5 247 nM + Decitabine 50.2 nM
# [22] = Example Compound 5 370 nM + Decitabine 75.2 nM
# [23] = Example Compound 5 555 nM + Decitabine 113 nM
# [24] = Example Compound 5 833 nM + Decitabine 169 nM
# [25] = Example Compound 5 1250 nM + Decitabine 254 nM
# [26] = Example Compound 14 519 nM + Decitabine 50.1 nM
# [27] = Example Compound 14 778 nM + Decitabine 75.2 nM
# [28] = Example Compound 14 1170 nM + Decitabine 113 nM
# [29] = Example Compound 14 1750 nM + Decitabine 169 nM
# [30] = Example Compound 14 2630 nM + Decitabine 254 nM
# [31] = Example Compound 209A 64.4 nM + Decitabine 33.4 nM
# [32] = Example Compound 209A 96.6 nM + Decitabine 50.1 nM
# [33] = Example Compound 209A 217 nM + Decitabine 113 nM
# [34] = Example Compound 209A 326 nM + Decitabine 169 nM
# [35] = Example Compound 235A 90.1 nM + Decitabine 33.4 nM
# [36] = Example Compound 235A 135 nM + Decitabine 50.1 nM
# [37] = Example Compound 235A 304 nM + Decitabine 113 nM
# [38] = Example Compound 235A 456 nM + Decitabine 169 nM
# [39] = Example Compound 235A 684 nM + Decitabine 254 nM
smiles,measurement,setting,value
"Nc1ccn([C@@H]2O[C@H](CO)[C@@H](O)C2(F)F)c(=O)n1 [Gemcitabine, gemcitabine]",CI value,[1]; [4],0.752
same,Fa value,[1]; [4],0.8565
same,CI value,[1]; [5],0.792
same,Fa value,[1]; [5],0.7031
same,CI value,[1]; [6],0.791
same,Fa value,[1]; [6],0.8749
same,CI value,[1]; [7],0.844
same,Fa value,[1]; [7],0.6511
same,CI value,[1]; [8],0.714
same,Fa value,[1]; [8],0.8624
same,CI value,[2]; [9],0.788
same,Fa value,[2]; [9],0.6974
same,CI value,[2]; [10],0.756
same,Fa value,[2]; [10],0.6749
same,CI value,[2]; [11],0.752
same,Fa value,[2]; [11],0.7790
same,CI value,[2]; [12],0.736
same,Fa value,[2]; [12],0.6998
same,CI value,[2]; [13],0.722
same,Fa value,[2]; [13],0.6762
"Nc1ncn([C@H]2C[C@H](O)[C@@H](CO)O2)c(=O)n1 [Decitabine, decitabine]",CI value,[1]; [14],0.542
same,Fa value,[1]; [14],0.3867
same,CI value,[1]; [15],0.577
same,Fa value,[1]; [15],0.5183
same,CI value,[1]; [16],0.602
same,Fa value,[1]; [16],0.6737
same,CI value,[1]; [17],0.569
same,Fa value,[1]; [17],0.5615
same,CI value,[1]; [18],0.570
same,Fa value,[1]; [18],0.2897
same,CI value,[1]; [19],0.567
same,Fa value,[1]; [19],0.4383
same,CI value,[1]; [20],0.650
same,Fa value,[1]; [20],0.5537
same,CI value,[3]; [21],0.685
same,Fa value,[3]; [21],0.3382
same,CI value,[3]; [22],0.725
same,Fa value,[3]; [22],0.4753
same,CI value,[3]; [23],0.709
same,Fa value,[3]; [23],0.6924
same,CI value,[3]; [24],0.693
same,Fa value,[3]; [24],0.8888
same,CI value,[3]; [25],0.608
same,Fa value,[3]; [25],0.9844
same,CI value,[3]; [26],0.707
same,Fa value,[3]; [26],0.3361
same,CI value,[3]; [27],0.872
same,Fa value,[3]; [27],0.4089
same,CI value,[3]; [28],0.849
same,Fa value,[3]; [28],0.5994
same,CI value,[3]; [29],0.717
same,Fa value,[3]; [29],0.8350
same,CI value,[3]; [30],0.599
same,Fa value,[3]; [30],0.9588
same,CI value,[3]; [31],0.793
same,Fa value,[3]; [31],0.2551
same,CI value,[3]; [32],0.839
same,Fa value,[3]; [32],0.3812
same,CI value,[3]; [33],0.715
same,Fa value,[3]; [33],0.8536
same,CI value,[3]; [34],0.627
same,Fa value,[3]; [34],0.9689
same,CI value,[3]; [35],0.725
same,Fa value,[3]; [35],0.2126
same,CI value,[3]; [36],0.757
same,Fa value,[3]; [36],0.3356
same,CI value,[3]; [37],0.760
same,Fa value,[3]; [37],0.7532
same,CI value,[3]; [38],0.687
same,Fa value,[3]; [38],0.9339
same,CI value,[3]; [39],0.535
same,Fa value,[3]; [39],0.9935
